The record followed here is patent publication US12492173B2, “Herbicidal substituted N-tetrazolyl aryl carboxamides” (Bayer Aktiengesellschaft, priority 2019, dated 2025).

The structures appear in SMILES notation.

Assay type in all cases: in vivo
What all share (details): comparative experiment, 20 g of a.i./ha

In one assay the test system is Avena fatua. Description: Pre-emergence herbicidal action, AVEFA. The source says:
1. Pre-Emergence Herbicidal Action Against Harmful Plants Seeds of monocotyledonous and dicotyledonous weed plants and crop plants are laid out in sandy loam soil in wood-fiber pots and covered with soil. The compounds of the invention, formulated in the form of wettable powders (WP) or as emulsion concentrates (EC), are then applied to the surface of the covering soil in the form of an aqueous suspension or emulsion at a water application rate equating to 600 to 800 l/ha, with addition of 0.2% wetting agent. After the treatment, the pots are placed in a greenhouse and kept under good growth conditions for the trial plants. The damage to the test plants is scored visually after a test period of 3 weeks by comparison with untreated controls (herbicidal activity in percent (%): 100% activity=the plants have died, 0% activity=like control plants). […] The tables below illustrate, in an exemplary manner, the post-emergence herbicidal action of the compounds according to the invention, the herbicidal activity being stated in percent. [table] In the experiments that follow, herbicidal action of numerous inventive compounds and the known compounds that are structurally closest from D1 (WO 2012/028579 A1) and D2 (WO 2018/202535 A1) were compared under the above-specified conditions by the pre-emergence and post-emergence method. […]

In the next assay the test system is Matricaria inodora. Description: Pre-emergence herbicidal action, MATIN. Also noted: key to Herbicidal action against MATIN: % activity: 100 = plants have died, 0 = like control plants. The gist of the method:
(§1)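 Pre-emergence soil spray over sandy loam-covered seeds; greenhouse 3 weeks; % visual damage (0% = control, 100% = dead).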

The test system of a further assay is Pharbitis purpurea. The assay is described as follows: Pre-emergence herbicidal action, PHBPU. The method, boiled down:
as §1

The subject of a further assay is Stellaria media. The assay is described as follows: Pre-emergence herbicidal action, STEME. On the set-up: key to Herbicidal action against STEME: % activity: 100 = plants have died, 0 = like control plants. The method, boiled down:
as §1

A further assay concerns Veronica persica. The assay is described as follows: Pre-emergence herbicidal action, VERPE. Also noted: key to Herbicidal action against VERPE: % activity: 100 = plants have died, 0 = like control plants. The method, boiled down:
as §1

The test system of a further assay is Viola tricolor. Description: Pre-emergence herbicidal action, VIOTR. Also noted: key to Herbicidal action against VIOTR: % activity: 100 = plants have died, 0 = like control plants. The method, boiled down: as §1

For `CSCc1c(Cl)ccc(C(=O)Nc2nnnn2C)c1C` [Example 1-46], the “Herbicidal action against AVEFA” value in the assay on Avena fatua amounted to 20. The “Herbicidal action against MATIN” value in the assay on Matricaria inodora was determined as 80. Moreover, the “Herbicidal action against PHBPU” value with Pharbitis purpurea was 40. The “Herbicidal action against STEME” value with Stellaria media is reported as 90. In the assay with Veronica persica, the “Herbicidal action against VERPE” value is on record as 50. In the assay on Viola tricolor, the “Herbicidal action against VIOTR” value worked out at 70.
